# Experimental data published in patent publication US6800750B1, “Mc1-1 gene regulatory elements and a pro-apoptotic mc1-1 variant” (Dartmouth College, priority 1999, dated 2004).
# Where two headings read alike, the source gives them in different places.
# Assays:
# [1] = system: Mcl-1; assay: Endogenous Mcl-1 expression in ML-1 cells exposed to inducers and inhibitors; assay type: cell-based, human
# [2] = system: Mcl-1; settings: cited from earlier work
# [3] = system: Erk-1 and Erk-2; assay: Phosphorylation state of MAP kinase proteins in ML-1 cells; assay type: cell-based, human
# [4] = system: human Mcl-1 5′-flanking sequence; assay: Transient luciferase expression assay of Mcl-1 reporter plasmids in K-562 cells; assay type: cell-based
# From the text: A 1.7 kilobase (kb) XbaI/XmaI human Mcl-1 genomic fragment representing nucleotide residues −1656 to +160, where +1 denotes the major transcriptional start site, along with a 14 base pair (bp) adapter ligated to its 3′ end to place the luciferase gene in the correct reading frame, was inserted into NheI and HindIII digested pGL2-Basic luciferase reporter vector (Promega; Madison Wis.), yielding p(−1656)Mcl-1luc.
# A series of 5′-deleted plasmids were constructed by double digestion of p(−1656)Mcl-1luc with SmaI, which cuts just upstream of the Mcl-1 insert, and restriction enzymes known to cut at unique sites within the Mcl-1 insert. […] Additional plasmids were constructed using PCR, including p(−107)Mcl-1luc, p(−51)Mcl-1luc, and p(+11)Mcl-1luc; the PCR products were sequenced to confirm their identity.
# Specific mutations were introduced into the p(−162)Mcl-1luc plasmid using a two stage PCR method of Chen and Boxer (supra, 1995). The Ets site at nucleotides −129 to −121 was converted from CCGGAAGC (SEQ ID NO: 4) to CCTTAAGC (SEQ ID NO: 5;ΔEts); the Sp1 site at nucleotides −118 to −113 was converted from CCGCCC (SEQ ID NO: 6) to CTGACC (SEQ ID NO: 7;ΔSp1); and the SRE at nucleotides −106 to −97 was converted from CCTTTTATGG (SEQ ID NO:8) to CCTTCGGCTG (SEQ ID NO: 9;ΔSRE); altered nucleotides are indicated in bold type. All mutations were verified by sequencing. The PCR products containing the desired mutations were digested with BstEII and EcoRI, and ligated into the p(−162)Mcl-1luc plasmid, which had been digested with the same enzymes.
# Electroporation was carried out with K-562 cells using the following protocol, which was based on preliminary experiments aimed at optimizing luciferase activity. Cells were washed twice and resuspended in PBS (5×10^6 cells in 0.5 ml) in the presence of 10 μg luciferase reporter plasmid, along with the pCMVhGH internal control plasmid used in most experiments (10 μg). After incubation on ice for 10 min, cells were electroporated (960 μF and 280 V; Bio-Rad Gene Pulser; Hercules Calif.), placed on ice for 15 min, then incubated at 37° C. (1×10^5 cells/ml) in Iscove's Modified Dulbecco's medium supplemented with 10% FBS, 100 units/ml penicillin, and 100 μg/ml streptomycin. After 17 hr, the cell suspension was divided into two portions, one of which was left untreated and the other of which was exposed to 1.7×10^−9 M TPA, which increased Mcl-1 expression in K-562 cells in a manner equivalent to that observed with 5×10^−10 TPA in ML-1 cells (Pahl et al., Expt. Hematol. 19:1038-1041 (1991), which is incorporated herein by reference). After 7 hr of exposure to TPA, when induction was at or near a peak level, cells were washed with PBS, then assayed in triplicate for luciferase activity (relative light units; Brasier et al., In “Current Protocols in Molecular Biology (Ausubel et al., eds.; John Wiley & Sons, N.Y. 1995), which is incorporated herein by reference; see pages 9.7.12-9.7.21) using a Microlite ML2250 Microtiter plate luminometer (Dynatech Laboratories; Chantilly Va.).
# In most experiments, a human growth hormone reporter plasmid, pCMVhGH (10 μg), was used as a control for transfection efficiency. pCMVhGH yielded a linear increase in activity upon transfection with 2 to 10 μg plasmid, where activity with 2 μg of plasmid was near the limit of sensitivity of the hGH assay, but activity with 5 to 10 μg was sufficiently above background to be accurately quantified.
# The experimental design, wherein an aliquot of cells electroporated with a test plasmid is divided into two portions, one of which was exposed to TPA and the other of which was not, was selected because CMV-based plasmids are subject to induction by TPA. […] Luciferase activity in both portions of cells was normalized to hGH production (assayed in triplicate in the portion of the sample not exposed to TPA).
# [5] = system: ML-1 cells; settings: cited from earlier work
# [6] = system: Hela cells; assay: Transient transfection cell death assay in Hela cells (β-gal marker, morphology scoring); assay type: cell-based, human
# Procedure: Two types of expression constructs were prepared for use in transfection into mammalian cells. In one set of constructs, Mcl-1 or the Mcl-1s/ΔTM variant were expressed in the pCR3.1 vector; in the second set of constructs, Mcl-1 was fused to green fluorescent protein (GFP). The Mcl-1 RT-PCR reaction products from the F4/R4 primer pair reactions (SEQ ID NOS: 15 and 17, respectively; cloned in pCR3.1) were digested with KpnI (a KpnI site is present in the F4 primer; SEQ ID NO: 15) and HindIII, as was full length Mcl-1(Mcl-1 clone p3.2 in pBluescriptII SK); Kozopas et al., supra, 1993) and the resulting 5′ region of the cDNA was isolated and ligated into pCR3.1 to yield full length Mcl-1 and Mcl-1s/ΔM. […]
# The pCR3.1-based Mcl-1 clones were transiently transfected into subconfluent monolayers of Hela cells in 12 well plates using SUPERFECT (Qiagen). […] Forty hr after transfection, cells were fixed, stained for β-gal activity, and analyzed microscopically to assess cell morphology. Transfection experiments were performed in a double blind manner and cells were scored either as having a normal, viable morphology (flat, healthy cells) or an abnormal morphology characteristic of dying cells (dense, rounded, detaching cells). All blue staining cells in each dish were counted and the results were expressed as percentages of cells with viable versus dying phenotypes.
molecule,measurement,setting,value
CC(=O)O[C@H]1C(=O)[C@@]2(C)[C@H]([C@H](OC(=O)c3ccccc3)[C@]3(O)C[C@H](OC(=O)[C@H](O)[C@@H](NC(=O)c4ccccc4)c4ccccc4)C(C)=C1C3(C)C)[C@]1(OC(C)=O)CO[C@@H]1C[C@@H]2O [paclitaxel],effect of pretreatment on increase in Mcl-1 expression produced by TPA,[1],not
same,effect of pretreatment on increase in Mcl-1 expression produced by colchicine or vinblastine,[1],blocked
CC[C@]1(O)C[C@@H]2CN(CCc3c([nH]c4ccccc34)[C@@](C(=O)OC)(c3cc4c(cc3OC)N(C)[C@H]3[C@@](O)(C(=O)OC)[C@H](OC(C)=O)[C@]5(CC)C=CCN6CC[C@]43[C@@H]65)C2)C1 [vinblastine],Mcl-1 expression,[1]; ML-1 cells,induced
COc1cc2c(c(OC)c1OC)-c1ccc(OC)c(=O)cc1[C@@H](NC(C)=O)CC2 [colchicine],Mcl-1 expression,[1]; ML-1 cells,induced
"CCCCCCCCCCCCCC(=O)O[C@@H]1[C@@H](C)[C@@]2(O)[C@@H](C=C(CO)C[C@]3(O)C(=O)C(C)=C[C@@H]23)[C@@H]2C(C)(C)[C@]12OC(C)=O [TPA, 12-O-tetradecanoylphorbol acetate]",time at which increase in Mcl-1 mRNA is detectable,[2]; ML-1 cells,≤ 1 h
same,Mcl-1 mRNA level relative to peak value,"[2]; ML-1 cells, within 1 day",about 50%
same,Mcl-1 level with TPA above low basal level,[2]; TPA without ERK inhibitor,~10 fold
same,Mcl-1 expression,[1]; ML-1 cells,induced
same,phosphorylation of Erk-1 and Erk-2,[3],increased phosphorylation
same,increase in reporter gene activity in response to TPA,[4]; 162 bp segment of human Mcl-1 5′-flanking sequence,approximately 10 fold
same,induction of luciferase activity by TPA,"[4]; K-562 cells, Mcl-1-luciferase reporter constructs, test of cell lines",about 10 fold
same,increase in luciferase activity after treatment with TPA,"[4]; K-562 cells, luciferase reporter driven by 1654 base pair segment of Mcl-1 5′ flanking region",approximately 8 fold
same,increase in activity in the presence of TPA over reduced basal value,"[4]; K-562 cells, p(−107)Mcl-1luc and p(−51)Mcl-1luc",approximately 3.5 fold
same,induction by TPA,"[4]; K-562 cells, p(−162)Mcl-1luc site mutation experiment (FIG. 3C)",9 fold
same,increase in luciferase activity in the presence of TPA,"[4]; K-562 cells, p(−1656)Mcl-1luc",about 10 fold
same,fold-induction by TPA,"[4]; K-562 cells, wild-type plasmid, additional experiments",about 11 fold
same,fold-induction by TPA above reduced basal value,"[4]; K-562 cells, ΔSRE/ΔEts plasmid",about 4 fold
same,induction of luciferase activity by TPA,"[4]; p(−162)Mcl-1luc and p(−1663)Mcl-1luc, absence of pCMVhGH",about 13.5 fold
same,induction of luciferase activity by TPA,"[4]; p(−162)Mcl-1luc and p(−1663)Mcl-1luc, presence of pCMVhGH",about 10.5 fold
COc1cccc(-c2cc(=O)c3ccccc3o2)c1N [PD 98059],basal Mcl-1 expression relative to value in the absence of PD 98059,"[2]; endogenously expressing cells, 8.5 hr assay period",about 25%
same,induction of endogenous Mcl-1 by TPA in the presence of PD 98059,[2]; endogenously expressing cells,about 3.5 fold
same,cell death,[5]; ERK inhibitor applied alone,not accompanied by cell death
same,cell death,[5]; ERK inhibitor applied in conjunction with TPA,cells died by apoptosis
same,"effect on up-regulation of Mcl-1 expression by TPA, colchicine and vinblastine",[1]; ML-1 cells,prevented
same,decrease of TPA-induced luciferase activity,"[4]; K-562 cells, 1654 base pair reporter, PD 98059 prior to TPA exposure",78%
same,effect on TPA-induced increase in luciferase activity,"[4]; K-562 cells, FIG. 2C","substantially, but not completely, inhibited"
same,effect on basal luciferase activity,"[4]; K-562 transfected cells, absence of TPA",caused a decline in basal activity
"Mcl-1s/ΔTM: 271 amino acid pro-apoptotic Mcl-1 splice variant, SEQ ID NO: 3, exon 1 joined to exon 3 (protein, listed as Homo sapiens) MFGLKRNAVIGLNLYCGGAGLGAGSGGATRPGGRLLATEKEASARREIGGGEAGAVIGGSAGASPPSTLTPDSRRVARPPPIGAEVPDVTATPARLLFFAPTRRAAPLEEMEAPAADAIMSPEEELDGYEPEPLGKRPAVLPLLELVGESGNNTSTDGSLPSTPPPAEEEEDELYRQSLEIISRYLREQATGAKDTKPMGRSGATSRKALETLRRVGDGVQRNHETVFQGWVCGVLPCRGPRRWHQECAAGFCRCCWSRSWFGISNKIALL","killing of cells, quantitated by double blind scoring of blue staining cells",[6],as effective as Bax
